# Legend:
# [1] = system: OVCAR8 and SKOV-3 OC cell lines; assay: MTT combination study of SU056 and paclitaxel; type: cell-based, human; conditions: paclitaxel at 0.1, 0.5, and 1 nM doses
# Protocol: Cell viability assay: Cell viability was assessed using the standard MTT assay protocol. In brief, 5,000 cells were plated in each well of 96 well plates (Corning-Costar, #3598) and allowed to attach for 24 h. Cells were treated with a respective concentration of compounds for respective time points. A stock solution of each compound was prepared in DMSO. DMSO concentration was kept constant and maintained below 0.1%. After each incubation, 50 μL of 0.5 mg/ml MTT solution prepared in 1×PBS was added to each well followed by 1 h incubation at 37° C. and 5% CO2. MTT solution and media were then removed, and MTT formazan crystals were dissolved in 100 μL of DMSO per well. Absorbance at 570 nm for each well was recorded using a multimode plate reader to quantitate MTT crystallization. Each absorbance value was normalized to controls and converted into percent cell viability.
# Combination index calculation: The combination index (CI) for paclitaxel and SU093 or SU056 was calculated using the Chou-Talalay Method (Chou, 2010). CI values were computed via CampuSyn software. CI<1, CI=1, and CI>1 indicate the synergistic, additive and antagonistic effect of the combination.
# Combination index values for paclitaxel and SU056. […] Scale bar, 250 μm FIG. 7E) Spheroid formation was quantified after 7 days of incubation. […] Tumor sections were stained with Ki67, and slides were scored for K167 staining. […]
# OC cell lines = assay: Cell migration assay (Boyden chamber); type: cell-based; conditions: different OC cell lines, P<0.05
# Protocol: To determine whether proliferation inhibition was the dominant factor driving the reduction in OC viability seen with AzP treatment, we used propidium iodide and annexin-FITC stains with flow cytometry to measure the distribution of cell cycle phases after treatment. […] Furthermore, in the Boyden chamber assay for cell migration, SU093 inhibited cell migration by 40-46% (1 μM, P<0.05) in different OC cell lines.
# Cell migration assay: 1×10^5 cells were plated in 60 mm cell culture dishes (Corning-Falcon, #353002) and incubated for 24 h. […] Cells were trypsinized and collected in a conical tube for each plate. Pellets of cells were resuspended, and live cells were counted using a hemocytometer and trypan blue staining. 40,000 live cells were then plated in the upper chamber of 8-micron transwell (Corning-Falcon, #353097) with 0.2% FBS media. The lower chamber contained 10% FBS complete media. […] Each transwell was washed, swiped for non-migrated cells and fixed using 75% ethanol. Fixed transwells were stained with 0.5% crystal violet for 1 h. De-stained transwell membranes were cut and mounted on a slide using DPX mounting media. Migrated cells were counted under the microscope at 100× magnification.
# FIG. 1A) Lead optimization of SU093 to obtain SU056. […] FIG. 1G) Effects of SU093 and SU056 on apoptotic cell death analyzed by Annexin-FITC staining. […]
# YB-1 [2] = molecular target: YB-1 (Homo sapiens, UniProt P67809); assay: Pulldown assay using biotinylated SU056; conditions: OVCAR8 cells and protein lysate
# Protocol: Pulldown assay using biotinylated SU056: protein pulldown assay was performed using biotinylated SU056. […] Pulldown from cells: OVCAR8 cells were treated with 2.5 μM biotinylated SU056 for 1.5 h. Treated cells were collected and lysed using M-PER™ lysis solution (Thermo Scientific, #78503), supplemented with Halt protease and phosphatase inhibitor cocktail (Thermo Scientific, #78440). 300 μg protein was incubated with magnetic conjugate streptavidin bead (CST, #5947) at 4° C. on rocker overnight. […] Pulldown from cell lysates: OVCAR8 cells were collected and lysed using M-PER™ lysis solution (Thermo Scientific, #78503), supplemented with Halt protease and phosphatase inhibitor cocktail (Thermo Scientific, #78440). 1000 μg protein was incubated with 10 μM biotinylated SU056 at 4° C. on rocker overnight followed by overnight incubation with magnetic conjugate streptavidin bead (CST, #5947) at 4° C. After both the pulldown, biotin-streptavidin conjugates were pulldown and washed using magnetic rack. After three washing, beads were resuspended in 2×SDS sample buffer followed by heating at 90-100° C. for 5 min. Samples were resolved and probed with GBP1 (Abnova, #H00002633-PW1, 1:2000) and YB-1 (CST, #8475; 1:2000) as described above in immunoblotting. […]
# YB-1 [3] = assay: YB-1 expression in six ovarian cancer cell lines; type: cell-based; conditions: 2.5 μM for 12 h; six different OC cell lines
# Protocol: Out of six targets identified, we selected proteins whose thermal shift is above 5° in the presence of SU056 for further study of protein expression after treatment. […] To study the in vivo effects of SU056 treatment, we analyzed ID8 tumor xenograft samples via immunohistochemistry (IHC). […] To identify the broader effects of SU056 on YB-1 and its downstream protein/activity in different ovarian cancer cell lines, we selected six different cell lines and treated them with SU056 (2.5 μM) for 12 h. Cells were analyzed for YB-1 and CD44 expression and Multidrug resistance 1 (MDR1, ABC pump mediated efflux). […] Finally, we tested the time kinetics and dose-dependent effects of SU056 on YB-1 expression. OVCAR4, OVCAR8, and SKOV3 cells were treated with SU056 (1, 2.5, and 5 μM) for 3, 6, 12, and 24 h and YB-1 expression was measured using YB-1 ELISA. […]
# Total YB-1 sandwich ELISA: Total YB-1 protein level was analyzed using PathScan® Total YB1 Sandwich ELISA Kit (Cell Signaling, #12543) by following the manufacturer's protocol.
# FIGS. 4A-4E: SU056 inhibits YB-1. […] FIG. 4C) Respective OC cells were treated with 2.5 μM SU056 for 12 h and YB-1 & CD44 expression and multidrug resistance activity was measured as described in the ‘method’ section. The % inhibition was calculated and compared to the control for the respective cell line. […]
# [4] = Liver microsomes metabolic profiling; type: in vitro ADME
# Description: FIGS. 15A-15E. […] SU056 treatment at increasing concentrations dose not challenge the dietary behavior as reflected by change in body weight FIG. 15A) Mice and FIG. 15B) Rat. […] Liver microsomes were used for the purpose of metabolic profiling.
# YB-1 (Homo sapiens, UniProt P67809), sequence (P67809 whole entry): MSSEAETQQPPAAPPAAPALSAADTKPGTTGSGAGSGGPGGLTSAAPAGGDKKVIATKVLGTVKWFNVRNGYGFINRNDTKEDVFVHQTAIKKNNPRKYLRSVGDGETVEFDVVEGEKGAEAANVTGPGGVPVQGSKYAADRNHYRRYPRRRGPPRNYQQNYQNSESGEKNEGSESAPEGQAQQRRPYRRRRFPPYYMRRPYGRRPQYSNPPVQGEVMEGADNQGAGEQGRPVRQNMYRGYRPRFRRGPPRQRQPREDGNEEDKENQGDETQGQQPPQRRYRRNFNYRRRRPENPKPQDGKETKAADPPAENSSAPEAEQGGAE
structure (smiles),measurement,setting,value
"O=C1OCC2=C1C(c1cccc(F)c1)c1cc3c(cc1N2CCO)OCO3 (centres unmarked) [SU056, 9-(3-fluorophenyl)-5-(2-hydroxyethyl)-6,9-dihydro-[1,3]dioxolo[4,5-g]furo[3,4-b]quinolin-8(5H)-one]",effect on cytotoxic effects of paclitaxel (MTT),[1],significantly potentiates the cytotoxic effects of paclitaxel
same,inhibition at 1 µM,OC cell lines,78 to 87%
same,physical interaction with YB-1 (pulldown),YB-1 [2],physically interacts with YB-1
same,inhibition of YB-1 expression,YB-1 [3],28-56%
same,half-life,[4],40 min

# From patent US20240016784A1, “Y BOX BINDING PROTEIN 1 INHIBITORS” (Oregon Health & Science University, priority 2020, published 2024)
